Measurements: patent US8835476B2, “Synthesis of novel antimicrobials” (priority 2005, dated 2014)
Converted amounts (≈) assume the structure as drawn. Like-named read-outs stand apart in the source and are kept apart here.

How the values were obtained:
Assay type in all cases: cell-based
P. rettgeri CAP = assay: Broth microdilution MIC, reference strains; settings: Providencia rettgeri, read-out: MIC (growth inhibition, microdilution method)
Source text: (§1) All clinical isolates tested were from The North American Urinary Tract Infection Collaborative Alliance (NAUTICA) which is a UTI surveillance study involving 40 medical centres (30 from the US and 10 from Canada). Each centre submitted up to 50 consecutive outpatient midstream urine isolates. All isolates were deemed significant urinary tract pathogens by individual laboratory criteria and identified to the species level by each laboratory's existing protocol. Isolates were transported to the coordinating laboratory (Health Sciences Centre, Winnipeg, Canada) on charcoal swabs. Only one isolate per patient was accepted. Upon receipt, isolates were cultured by the coordinating laboratory, stocked in skim milk, and stored at −80° C. awaiting reference antibiotic susceptibility testing. Elementary demographic information was also compiled for each isolate. Isolates were selected randomly from the above pool to represent 18 different species of Enterobacteriaceae and non-Enterobacteriaceae. An average of 5 strains of each species were tested for a total of 93 organisms. In addition, 23 reference (ATCC) [both gram negative and gram positive] strains were tested.
(§2) Susceptibilities to the compounds were determined using the National Committee for Clinical Laboratory Standards (NCCLS) M7-A6 broth microdilution method. […] DMSO controls were incorporated into the panel to mimic the quantity of DMSO used in dissolving some of the compounds at the higher concentrations. Each final panel well volume was 100 μl with a bacterial inoculum of 5×10^5 colony forming units (CFU)/ml. Panels were read following 16 to 20 hours of incubation at 35° C. in ambient air. The minimum inhibitory concentration (MIC) was defined as the lowest concentration of antimicrobial inhibiting visible growth. Quality control (QC) was performed using four ATCC QC organisms that were run with every batch set up to insure reproducibility.

S. simulans ATCC 27848 = assay: Broth microdilution MIC, ATCC strains; settings: Staphylococcus simulans, ATCC27848, read-out: MIC (growth inhibition, microdilution method)
Source text: as §1, §2

E. coli ATCC 25922 = assay: Broth microdilution MIC, ATCC strains; settings: Escherichia coli
Source text: as §1, §2

K. pneumoniae ATCC 13883 = assay: Broth microdilution MIC, ATCC strains; settings: Klebsiella pneumoniae, ATCC13883, read-out: MIC (growth inhibition, microdilution method)
Source text: as §1, §2

MRSA ATCC 33591 = assay: Broth microdilution MIC, ATCC strains; settings: Staphylococcus aureus, read-out: MIC (growth inhibition, microdilution method)
Source text: as §1, §2

E. faecalis ATCC 29212 = assay: Broth microdilution MIC, ATCC strains; settings: Enterococcus faecalis, read-out: MIC (growth inhibition, microdilution method)
Source text: as §1, §2

[1] = test system: S. maltophilia ATCC 13637; assay: Broth microdilution MIC, ATCC strains; settings: Stenotrophomonas maltophilia, ATCC13637; S. maltophilia ATCC 13637; read-out: MIC (growth inhibition, microdilution method)
Source text: as §1, §2

[2] = test system: S. liquefaciens ATCC 27592; assay: Broth microdilution MIC, ATCC strains; settings: read-out: MIC (growth inhibition, microdilution method)
Source text: as §1, §2

S. aureus ATCC 29213 = assay: Broth microdilution MIC, ATCC strains; settings: Staphylococcus aureus, ATCC29213, read-out: MIC (growth inhibition, microdilution method)
Source text: as §1, §2

S. marcescens ATCC 8100 = assay: Broth microdilution MIC, ATCC strains; settings: Serratia marcescens, ATCC8100, read-out: MIC (growth inhibition, microdilution method)
Source text: as §1, §2

[3] = test system: S. epidermidis ATCC 14990; assay: Broth microdilution MIC, ATCC strains; settings: Staphylococcus epidermidis
Source text: as §1, §2

[4] = test system: S. saprophyticus ATCC 15305; assay: Broth microdilution MIC, ATCC strains; settings: Staphylococcus saprophyticus, ATCC15305, read-out: MIC (growth inhibition, microdilution method)
Source text: as §1, §2

K. oxytoca ATCC 49131 = assay: Broth microdilution MIC, ATCC strains; settings: Klebsiella oxytoca, ATCC49131, read-out: MIC (growth inhibition, microdilution method)
Source text: as §1, §2

[5] = test system: S. liquifaciens clinical isolates; assay: Broth microdilution MIC, clinical isolate strains (NAUTICA); settings: clinical isolates, one table line per isolate; unit assumed
Source text: as §1, §2

[6] = test system: E. aerogenes clinical isolates; assay: as above; settings: clinical isolates, one table line per isolate; unit assumed
Source text: as §1, §2

[7] = test system: C. amalonaticus clinical isolates; assay: as above; settings: clinical isolates, one table line per isolate; unit assumed
Source text: as §1, §2

[8] = test system: S. marcescens clinical isolates; assay: as above; settings: clinical isolates, one table line per isolate; unit assumed
Source text: as §1, §2

[9] = test system: P. mirabilis clinical isolates; assay: as above; settings: clinical isolates, one table line per isolate; unit assumed
Source text: as §1, §2

[10] = test system: P. vulgaris clinical isolates; assay: as above; settings: clinical isolates, one table line per isolate; unit assumed
Source text: as §1, §2

[11] = test system: M. morganii clinical isolates; assay: as above; settings: clinical isolates, one table line per isolate; unit assumed
Source text: as §1, §2

[12] = test system: K. pneumoniae clinical isolates; assay: as above; settings: clinical isolates, one table line per isolate; unit assumed
Source text: as §1, §2

[13] = test system: C. koseril clinical isolates; assay: as above; settings: clinical isolates, one table line per isolate; unit assumed
Source text: as §1, §2

[14] = test system: C. freundii clinical isolates; assay: as above; settings: clinical isolates, one table line per isolate; in µg/mL (unit assumed)
Source text: as §1, §2

[15] = test system: E. cloacae clinical isolates; assay: as above; settings: clinical isolates, one table line per isolate; unit assumed
Source text: as §1, §2

[16] = test system: K. oxytoca clinical isolates; assay: as above; settings: clinical isolates, one table line per isolate; unit assumed
Source text: as §1, §2

[17] = test system: E. coli clinical isolates; assay: as above; settings: clinical isolates, one table line per isolate; unit assumed
Source text: as §1, §2

[18] = test system: P. retgerri clinical isolates; assay: as above; settings: clinical isolates, one table line per isolate; unit assumed
Source text: as §1, §2

[19] = test system: B. cepacia clinical isolates; assay: as above; settings: clinical isolates, one table line per isolate; unit assumed
Source text: as §1, §2

[20] = ATCC25922, read-out: MIC (growth inhibition, microdilution method)
[21] = ATCC29212, E. faecalis ATCC 29212
[22] = ATCC29212, E. faecalis, ATCC number not given

SMILES | MIC (P. rettgeri CAP) [µg/mL] | MIC (S. simulans ATCC 27848) [µg/mL] | MIC (E. coli ATCC 25922; [20]) [µg/mL] | MIC (K. pneumoniae ATCC 13883) [µg/mL] | MIC (E. faecalis ATCC 29212; [21]) [µg/mL] | MIC (E. faecalis ATCC 29212; [22]) [µg/mL] | MIC [1] [µg/mL] | MIC [2] [µg/mL] | MIC (S. aureus ATCC 29213) [µg/mL] | MIC (S. marcescens ATCC 8100) [µg/mL] | MIC [4] [µg/mL] | MIC (K. oxytoca ATCC 49131) [µg/mL] | MIC, S. LIQUEFACIENS [5] [µg/mL] | MIC, E. AEROGENES [6] [µg/mL] | MIC, C. AMALONATICUS [7] [µg/mL] | MIC, S. MARCESCENS [8] [µg/mL] | MIC, P. MIRABILIS [9] [µg/mL] | MIC, P. VULGARIS [10] [µg/mL] | MIC, M. MORGANII [11] [µg/mL] | MIC, K. PNEUMONIAE [12] [µg/mL] | also measured
O=C(O)c1cc(-c2nnn[nH]2)c(C(=O)O)s1 [DNM-111, 3-(1H-tetrazol-5-yl)thiophene-2,5-dicarboxylic acid] | 128 (≈ 533 µM) | 256 (≈ 1070 µM) | 128 (≈ 533 µM) | 128 (≈ 533 µM) | 8 (≈ 33.3 µM) | 8 (≈ 33.3 µM) | 64 (≈ 266 µM) | 128 (≈ 533 µM) | 128 (≈ 533 µM) | 128 (≈ 533 µM) | 128 (≈ 533 µM) | 128 (≈ 533 µM) | 128 (≈ 533 µM) | 128 (≈ 533 µM) | 128 (≈ 533 µM) | 128 (≈ 533 µM) | 128 (≈ 533 µM) | 128 (≈ 533 µM) | 128 (≈ 533 µM) | 128 (≈ 533 µM) | MIC (E. coli ATCC 25922; ATCC25922, E. coli ATCC 25922, read-out: MIC (growth inhibition, microdilution method)): 64 µg/mL (≈ 266 µM); MIC (MRSA ATCC 33591): 128 µg/mL (≈ 533 µM); MIC ([3]; ATCC14990, read-out: MIC (growth inhibition, microdilution method)): 128 µg/mL (≈ 533 µM); MIC, C. KOSERI [13]: 128 µg/mL (≈ 533 µM); MIC, C. FREUNDII [14]: 128; MIC, E. CLOACAE [15]: 128 µg/mL (≈ 533 µM); MIC, K. OXYTOCA [16]: 128 µg/mL (≈ 533 µM)
COC(=O)c1cc(-c2nnn(C)n2)c(C(=O)OC)s1 [DNM-114, 3-(2-methyl-2H-tetrazol-5-yl)-thiophene-2,5-dicarboxylic acid dimethyl ester] | 128 (≈ 453 µM) | 256 (≈ 907 µM) | 128 (≈ 453 µM) | 128 (≈ 453 µM) | 8 (≈ 28.3 µM) | 8 (≈ 28.3 µM) | 64 (≈ 227 µM) | 128 (≈ 453 µM) | 128 (≈ 453 µM) | 128 (≈ 453 µM) | 128 (≈ 453 µM) | 128 (≈ 453 µM) | 128 (≈ 453 µM) | 128 (≈ 453 µM) | 128 (≈ 453 µM) | 128 (≈ 453 µM) | 128 (≈ 453 µM) | 128 (≈ 453 µM) | 128 (≈ 453 µM) | 128 (≈ 453 µM) | MIC (MRSA ATCC 33591; MRSA ATCC 33591): 256 µg/mL (≈ 907 µM); MIC ([3]; ATCC14990, S. epidermidis ATCC 14990, read-out: MIC (growth inhibition, microdilution method)): 64 µg/mL (≈ 227 µM); MIC, E. COLI [17]: 128 µg/mL (≈ 453 µM); MIC, P. RETTGERI [18]: 128 µg/mL (≈ 453 µM); MIC, C. KOSERI [13]: 128 µg/mL (≈ 453 µM); MIC, C. FREUNDII [14]: 128; MIC, B. CEPACIA [19]: 64 µg/mL (≈ 227 µM); MIC, E. CLOACAE [15]: 128 µg/mL (≈ 453 µM); MIC, K. OXYTOCA [16]: 128 µg/mL (≈ 453 µM)
